Like-named read-outs stand apart in the source and are kept apart here.
Experiments:
[1] = test system: 187 kinases; conditions: cited from earlier work
[2] = in vivo; cited from earlier work
[3] = test system: LRRK2 Ser910 and Ser935 phosphorylation; conditions: in peripheral tissues in vivo; cited from earlier work
[4] = test system: panel of 460 other kinases; conditions: cited from earlier work
[5] = test system: LRRK2 Ser910 and Ser935 phosphorylation; conditions: in vitro; cited from earlier work
[6] = biological target: LRRK2 kinase (Homo sapiens, UniProt Q5S007); conditions: previously reported; cited from earlier work
[7] = test system: LRRK2 phosphorylation; conditions: mice, 30 mg/kg to 50 mg/kg i.p., in vivo; cited from earlier work
[8] = test system: panel of 136 other kinases; conditions: cited from earlier work
[9] = cited from earlier work
[10] = test system: human BMDC derived from Crohn's disease peripheral blood; experiment: ZymD-induced TNF-alpha production in human BMDC derived from Crohn's disease peripheral blood; type: cell-based; conditions: human cells
[11] = test system: DSS-colitis; experiment: DSS (dextran-sulfate)-colitis in mice; type: in vivo
From the text: In initial studies to evaluate global LRRK2 function in bowel inflammation, LRRK2-Tg mice (as well as LRRK2 KO mice) were subjected to DSS (dextran-sulfate)-colitis. […] In contrast, DSS-colitis in LRRK2 KO mice was slightly less severe than in control mice (FIG. 2a and FIG. 2b). This latter result differs from that reported by Liu et al. who found increased severity of DSS colitis in LRRK2 KO mice. This discrepancy is likely due to differences in the control mice used in the two studies: the experiments described herein used control mice that had been back-crossed for 9 generations, were housed in the same facility and exposed to the same microbiota. These studies of DSS-colitis thus indicate that increased expression of LRRK2 leads to an increased inflammatory response in experimental colitis.

[12] = test system: BMDC from LRRK2 Tg mice; experiment: autophagy (Western blotting, LC3 puncta) in M. leprae- and ZymD-stimulated BMDC from LRRK2 Tg mice; type: cell-based
[13] = test system: BMDC from LRRK2 Tg mice; experiment: ZymD-induced cytokine production in BMDC from LRRK2 Tg mice; type: cell-based; conditions: for ZymD-induced cytokine production: FIG. 5a and 5b
From the text: Since several of the candidate susceptibility genes in IBD (e.g., NOD2 and […]) are likely to be causing disease via an abnormal innate immune response, it was reasoned that increased LRRK2 expression was leading to an enhanced inflammatory response initiated by a Pathogen Associated Molecular Patterns (PAMPs) in the gastrointestinal environment.
Furthermore, in rat microglia, LRRK2 inhibitors block TLR4-induced TNF-a and iNOS production. Based on these findings, whether LRRK2 inhibition can serve as a therapeutic target in IBD was investigated. First, ZymD-induced cytokine production in BMDC from LRRK2 Tg mice in the presence or absence of two LRRK2 inhibitors, LRRK2-IN-1 and CZC54252.

[14] = ZymD-induced, BMDC from LRRK2 Tg mice

Chain of LRRK2 kinase (Q5S007 whole entry, species assumed): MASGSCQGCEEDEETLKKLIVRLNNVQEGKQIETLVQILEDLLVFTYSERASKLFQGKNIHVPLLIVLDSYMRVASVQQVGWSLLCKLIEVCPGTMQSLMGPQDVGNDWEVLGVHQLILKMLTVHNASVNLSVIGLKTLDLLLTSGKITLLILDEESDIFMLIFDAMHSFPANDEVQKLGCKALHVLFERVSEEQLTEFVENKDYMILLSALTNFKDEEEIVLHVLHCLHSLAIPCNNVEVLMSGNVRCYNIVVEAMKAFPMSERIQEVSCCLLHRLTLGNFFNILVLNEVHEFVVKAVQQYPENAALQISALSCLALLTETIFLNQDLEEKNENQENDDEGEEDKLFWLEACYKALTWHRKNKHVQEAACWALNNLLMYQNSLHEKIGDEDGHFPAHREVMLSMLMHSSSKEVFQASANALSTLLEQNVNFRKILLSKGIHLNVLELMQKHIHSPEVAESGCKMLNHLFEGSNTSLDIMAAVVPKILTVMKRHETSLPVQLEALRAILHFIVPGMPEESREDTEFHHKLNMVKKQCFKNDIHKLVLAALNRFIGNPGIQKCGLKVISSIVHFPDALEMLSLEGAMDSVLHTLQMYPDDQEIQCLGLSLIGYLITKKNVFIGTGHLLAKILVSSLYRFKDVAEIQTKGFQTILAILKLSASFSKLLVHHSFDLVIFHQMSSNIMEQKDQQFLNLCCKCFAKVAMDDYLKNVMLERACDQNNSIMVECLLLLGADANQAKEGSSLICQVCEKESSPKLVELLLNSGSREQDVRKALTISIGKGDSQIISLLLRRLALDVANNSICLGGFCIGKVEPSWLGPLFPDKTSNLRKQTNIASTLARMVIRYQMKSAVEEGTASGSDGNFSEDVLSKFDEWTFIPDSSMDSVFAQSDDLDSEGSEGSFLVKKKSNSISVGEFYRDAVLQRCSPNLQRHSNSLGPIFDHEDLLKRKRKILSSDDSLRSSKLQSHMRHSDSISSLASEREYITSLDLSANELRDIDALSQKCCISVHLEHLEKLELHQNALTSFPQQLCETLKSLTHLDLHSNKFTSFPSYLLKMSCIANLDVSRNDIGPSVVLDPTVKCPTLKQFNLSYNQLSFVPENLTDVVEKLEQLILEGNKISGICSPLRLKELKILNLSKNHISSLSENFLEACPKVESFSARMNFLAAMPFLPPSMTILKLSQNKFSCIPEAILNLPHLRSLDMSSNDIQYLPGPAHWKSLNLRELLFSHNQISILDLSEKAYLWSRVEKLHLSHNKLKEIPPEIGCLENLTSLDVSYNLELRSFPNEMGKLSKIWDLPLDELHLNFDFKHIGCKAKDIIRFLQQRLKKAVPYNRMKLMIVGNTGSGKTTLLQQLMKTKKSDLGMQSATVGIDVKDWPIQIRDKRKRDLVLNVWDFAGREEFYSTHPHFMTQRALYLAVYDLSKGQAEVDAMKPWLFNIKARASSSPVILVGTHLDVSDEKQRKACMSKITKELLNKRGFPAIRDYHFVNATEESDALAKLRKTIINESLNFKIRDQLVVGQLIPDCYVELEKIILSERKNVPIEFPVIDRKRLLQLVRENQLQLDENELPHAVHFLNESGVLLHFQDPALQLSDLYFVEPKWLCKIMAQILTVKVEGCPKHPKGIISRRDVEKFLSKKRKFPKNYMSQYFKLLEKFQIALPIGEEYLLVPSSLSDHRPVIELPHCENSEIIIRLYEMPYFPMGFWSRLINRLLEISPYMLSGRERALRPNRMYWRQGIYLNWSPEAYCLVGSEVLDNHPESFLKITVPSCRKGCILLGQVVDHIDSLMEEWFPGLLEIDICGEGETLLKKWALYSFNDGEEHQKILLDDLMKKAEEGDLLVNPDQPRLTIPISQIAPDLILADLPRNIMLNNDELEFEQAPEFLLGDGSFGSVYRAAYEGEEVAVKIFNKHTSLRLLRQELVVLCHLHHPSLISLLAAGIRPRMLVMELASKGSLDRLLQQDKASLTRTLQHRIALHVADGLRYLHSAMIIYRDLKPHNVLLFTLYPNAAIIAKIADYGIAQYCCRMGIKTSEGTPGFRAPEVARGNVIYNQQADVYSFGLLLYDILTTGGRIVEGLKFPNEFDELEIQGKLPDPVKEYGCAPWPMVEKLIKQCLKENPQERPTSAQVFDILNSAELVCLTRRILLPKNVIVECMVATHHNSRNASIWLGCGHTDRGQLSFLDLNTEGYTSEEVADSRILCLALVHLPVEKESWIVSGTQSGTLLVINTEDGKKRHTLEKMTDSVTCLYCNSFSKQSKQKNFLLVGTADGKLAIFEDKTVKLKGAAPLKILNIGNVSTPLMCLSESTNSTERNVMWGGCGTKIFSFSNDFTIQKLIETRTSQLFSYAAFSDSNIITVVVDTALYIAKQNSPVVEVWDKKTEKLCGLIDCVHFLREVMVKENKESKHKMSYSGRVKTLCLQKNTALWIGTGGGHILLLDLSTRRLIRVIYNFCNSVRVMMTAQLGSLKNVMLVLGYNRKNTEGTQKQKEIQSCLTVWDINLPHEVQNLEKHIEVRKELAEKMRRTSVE

CCNc1nc(Nc2cc(F)c(C(=O)N3CCOCC3)cc2OC)ncc1C(F)(F)F [GNE-7915, (4-((4-(ethylamino)-5-(trifluoromethyl)pyrimidin-2-yl)amino)-2-fluoro-5-methoxyphenyl)(morpholino)methanone]
selectivity (kinases) [1]: 1/187
brain penetration [2]: brain-penetrant

O=C(Nc1cccnc1)c1cc(-c2ccnc(F)c2)ccc1OCc1ccccc1 [GSK2578215A, 5-(2-Fluoro-4-pyridinyl)-2-(phenylmethoxy)-N-3-pyridinylbenzamide]
Ser910 and Ser935 phosphorylation [3]: blocks
selectivity for LRRK2 against a panel of 460 other kinases [4]: displays selectivity for LRRK2
Ser910 and Ser935 phosphorylation [5]: blocks
brain penetration [2]: brain penetrant

O=C1Nc2ccc(I)cc2/C1=C/c1cc(Br)c(O)c(Br)c1 [GW5074]
inhibitory activities of LRRK2 kinase [6]: inhibitory activities

O=S(=O)(NCCNC/C=C/c1ccc(Br)cc1)c1cccc2cnccc12 [H-89]
inhibitory activities of LRRK2 kinase [6]: inhibitory activities

CNc1nc(Nc2ccc(C(=O)N3CCOCC3)cc2OC)ncc1Cl [HG-10-102-01, (4-(5-Chloro-4-(methylamino)pyrimidin-2-ylamino)-3-methoxyphenyl)(morpholino)methanone]
blood-brain-barrier crossing for LRRK2 phosphorylation inhibition [7]: can cross the blood-brain-barrier
activity toward a panel of 136 other kinases [8]: little activity
cell permeability [9]: cell-permeable

O=C1Nc2ccccc2/C1=C1/Nc2ccccc2/C1=N\O [Indirubin-3-monoxime]
inhibitory activities of LRRK2 kinase [6]: inhibitory activities

COc1cc(C(=O)N2CCC(N3CCN(C)CC3)CC2)ccc1Nc1ncc2c(n1)N(C)c1ccccc1C(=O)N2C [LRRK2-IN-1, 5,11-Dihydro-2-[[2-methoxy-4-[[4-(4-methyl-1-piperazinyl)-1-piperidinyl]carbonyl]phenyl]amino]-5,11-dimethyl-6H-pyrimido[4,5-b][1,4]benzodiazepin-6-one]
concentration required to suppress cytokine production [10]: 5 µM
DSS-colitis severity ([11]; LRRK2-Tg mice): amelioration
DSS-colitis severity ([11]; wild-type mice (so in the source)): ameliorate
autophagy (Western blotting and quantitation of LC3 puncta) [12]: reversed inhibition of autophagy
ZymD-induced cytokine production ([13]; BMDC from LRRK2 Tg mice): greatly reduced
inhibition of TNF-alpha, dose dependence [13, 14]: dose dependent
production of pro-inflammatory cytokine mRNAs (TNF-alpha, TL1A, IL-23p19, IL-6 and IL-1beta mRNAs) [13, 14]: suppressed

COc1cc(N2CCC(N3CCN(C)CC3)CC2)ccc1Nc1ncc(Cl)c(Nc2ccccc2S(=O)(=O)C(C)C)n1 [TAE684]
inhibitory activities of LRRK2 kinase [6]: inhibitory activities

N-[-[[5-Chloro-2-[[2-methoxy-4-(4-morpholinyl)phenyl]amino]-4-pyrimidinyl]amino]phenyl]methanesulfonamide hydrochloride [CZC54252]
inhibition of TNF-alpha, dose dependence [13]: dose dependent
ZymD-induced cytokine production ([13]; BMDC from LRRK2 Tg mice): greatly reduced
production of pro-inflammatory cytokine mRNAs (TNF-alpha, TL1A, IL-23p19, IL-6 and IL-1beta mRNAs) [13, 14]: suppressed
